Results taken from US7612080B2, “GTPase inhibitors and use thereof for controlling platelet hyperactivity” (Cincinnati Children's Hospital Medical Center, priority 2004, dated 2009).

Key:
[1] = system: PC-3 cells; assay: Anchorage independent growth in soft agar
[2] = system: PC-3 cells; assay: Matrigel cell invasion assay; conditions: 25 μM compound, 24 hrs
Description: Cell invasion assays. The cell invasion assays are performed using 6.4-mm Biocoat Matrigel invasion chambers with 8.0-micron pore size PET membrane (Becton-Dickinson) according to the manufactory instructions. Briefly, 5×10^4 cells are resuspended in 0.5 ml of serum free culture medium and added to the upper chamber. 10% fetal bovine serum in the culture medium is used as a chemo-attractant in the lower chamber. After the cells are incubated for overnight, the number of cell passed through the Matrigel is counted.
Cells invaded through Matrigel matrix were visualized with Giemasa staining.

[3] = target: T1, endogenous RhoA (Mus musculus, UniProt Q9QUI0); assay: Endogenous Rho GTPase activity assay (GST-Rhotekin pull-down), RhoA in NIH 3T3 cells; format: cell-based; conditions: 10% serum
T1 construct: endogenous in cells; host or cells: NIH 3T3 fibroblasts
T1 sequence (Q9QUI0 whole entry): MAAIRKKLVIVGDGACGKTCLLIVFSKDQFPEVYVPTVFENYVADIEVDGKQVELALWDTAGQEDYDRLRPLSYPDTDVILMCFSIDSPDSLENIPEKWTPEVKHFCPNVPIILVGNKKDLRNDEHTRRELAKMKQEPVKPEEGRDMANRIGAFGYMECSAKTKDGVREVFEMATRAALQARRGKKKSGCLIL

[4] = target: T2, RhoA binding to PDZ-RhoGEF (Homo sapiens, UniProt P61586); assay: Complex formation assay, RhoA with PDZ-RhoGEF
T2 construct: made in house; host or cells: Cos-7 cells (PDZ-RhoGEF, used as lysate)
T2 sequence (P61586 whole entry): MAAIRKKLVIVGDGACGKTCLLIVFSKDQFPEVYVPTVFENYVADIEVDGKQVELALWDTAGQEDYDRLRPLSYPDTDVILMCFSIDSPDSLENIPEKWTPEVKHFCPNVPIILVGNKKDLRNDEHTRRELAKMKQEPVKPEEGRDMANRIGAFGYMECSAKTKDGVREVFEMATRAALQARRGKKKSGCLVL
Description: Trio and Tiam-1 co-precipitate with GST-Rac1, but not GST or GST-Cdc42.
After an incubation at 4° C. for 30 minutes, the beads associated (His)6-TrioN were detected by anti-His Western blotting. The blots were quantified by densitometry analysis. The results are representative of three measurements. […] The association of Rac1 with Tiam1 was examined by anti-His blot after anti-myc immunoprecipitation. […] The RhoA associated PDZ-RhoGEF was probed with anti-AU antibody after affinity precipitation by glutathione agarose beads.

[5] = system: NIH 3T3 cells; assay: Cell growth assay of wild type, L61Rac1- or GEF-expressing NIH 3T3 cells; format: cell-based; conditions: 100 μM compound
From the text: The cells were split in triplicate in 6-well plates at a density of 5×10^4 cells per well. […] The foci numbers of the respective cells were quantified 14 days after transfection. […] The number and the morphology of the colonies were examined under a microscope.
Due to their ability to directly activate Rho GTPases, Db1 family GEFs are potent stimulators of cell proliferation.

[6] = system: Swiss3T3 cells; assay: Immunofluorescence of PDGF-stimulated lamellipodia formation; conditions: 100 μM compound, 10 nM PDGF
Description: Immunofluorescence. […] The cellular actin is stained with TRITC-labeled phalloidin (Sigma) at 10 μg/ml in PBS for 40 min at room temperature. The actin and cell morphological changes are visualized by fluorescence microscopy.
The cells were fixed and stained with Rhodamine-labeled phalloidin.

[7] = system: platelets; assay: Platelet adhesion, secretion and aggregation elicited by agonists; format: cell-based, mouse and human; conditions: induced by ADP, PLC, U46619, collagen, thrombin, or phorbol ester
From the text: In the studies disclosed hereinbelow, a dual approach of genetic targeting of Rac GTPases in mice and specific pharmacological inhibition of Rac GTPases in both mouse and human platelets was used to establish the central role of Rac GTPases in platelet function.
Treatment of mice with Compound NCI23766, Formula IV. […] This process was described above in the Experimental section of this document.

[8] = target: PDZ-RhoGEF-stimulated mantGDP/GTP exchange of RhoA (Homo sapiens, UniProt P61586); assay: In vitro guanine nucleotide exchange assay (mant-GDP), RhoA/PDZ-RhoGEF; format: biochemical; conditions: 200 μM compound
PDZ-RhoGEF-stimulated mantGDP/GTP exchange of RhoA, sequence (P61586 whole entry): as above

[9] = system: PC-3 cells; assay: PC-3 cell proliferation (CellTiter 96 AQueous assay); conditions: 5% calf serum, indicated concentrations
Description: Cell growth assay. […] The growth rate of the prostate PC-3 cells is measured by the CellTiter 96 AQueous assay (Promega). 1,500 cells/well in 200 μl of 5% FBS medium are plated in 96-well plates and are grown under normal conditions. Cultures are assayed in 0, 1, 2, 3, 4, or 5 days by the addition of 20 μl of the combined MTS/PMS solution followed by incubation for one hour at 37° C. Absorbency is measured at a wavelength of 490 nm on an automated microplate reader.
The cells were split in triplicate in 96-wells at 1.5×10^3 cells per well. Cell numbers were assayed by using CellTiter 96 AQueous cell proliferation assay kit in different days.

level of RhoA-GTP in cells [3]: slightly increased level | interference with RhoA binding to PDZ-RhoGEF [4]: does not interfere | effect on PDZ-RhoGEF-stimulated mantGDP/GTP exchange of RhoA [8]: little impact
SMILES: CCN(CC)CCCC(C)Nc1nc(C)cc(Nc2ccc3nc(C)cc(N)c3c2)n1 (racemic) [Compound NCI23766, N6-(2-((4-(diethylamino)-1-methylbutyl)amino)-6-methyl-4-pyrimidinyl)-2-methyl-4,6-quinolinediamine]
size of colonies of treated cells versus untreated [1]: much smaller | colony-forming activities remaining ([1]; 25 μM compound): Approximately 10% | colony-forming activities remaining ([1]; 50 μM compound): ~1% | PC-3 cell invasion [2]: significantly inhibits | growth of wild type NIH 3T3 cells ([5]; 5% serum): slow the growth | growth rate of Rac1L61 expressing cells ([5]; 5% serum): no effect | cell growth induced by the Rac specific GEF Trio ([5]; NIH 3T3, 5% serum): capable of inhibiting | PDGF induction of lamellipodia at the cell edges ([6]; 5 min): only marginally effective | PDGF induction of lamellipodia at the cell edges ([6]; 10 min): completely ineffective | platelet adhesion [7]: worked remarkably in inhibiting | platelet aggregation [7]: worked remarkably in inhibiting | platelet secretion [7]: worked remarkably in inhibiting | proliferation rates of PC-3 cells [9]: inhibited by Compound NCI23766 in a dose dependent manner
